Source: article PMC4541410 (Scientific Reports, 2015)

Columns and labels:
[1] = subcutaneously twice daily at 90 mg per dose; cited from earlier work
[2] = test system: proteinase K; test: in vitro; settings: proteinase K in PBS, pH 7.2
Protocol: Chromatographic analyses were performed using an ODS-C8 column (5 μm, 100 mm × 2.0 mm ID) kept at ambient temperature. The mobile phase was composed of acetonitrile-water-formic acid in the ratio of 50:50:0.1 (v/v/v) at a flow rate of 0.3 mL/min. The sample injection volume was 10 μL. Acetonitrile was HPLC grade and other chemical reagents and solvents were analytical grade. A Thermo TSQ Quantum Discovery MAX triple-quadruple tandem mass spectrometer equipped with ESI source (San Jose, CA) and Surveyor LC pump were used for LC-MS analysis. Data acquisition and data processing were performed by using Xcalibur software and LCQuan 2.0 data analysis program (Thermo Finnigan), respectively. Optimized MS parameters were as below: 4800 V spray voltage, 40.0 psi sheath gas pressure, 1.0 psi auxiliary valve flow and 300 °C of capillary temperature. When running collision-induced dissociation (CID), the pressure was set to 1.5 mTorr.
The peptides (10 μg/mL) were prepared in PBS pH 7.2 containing 20 ng/ml proteinase K. The resulting mixture were incubated at 37 °C in a water bath and taken out at different time intervals (0, 5, 15, 30, 60, 120 minutes), followed by quenching the samples with ethyl alcohol and quantitating the peptides by LC-MS analysis as described above.

[3] = cited from earlier work
[4] = in vivo; settings: male, Sprague-Dawley (SD), rat, plasma, iv, 1 mg/kg
Protocol: (§1) Four male SD rats weighing approximately 200 g each were obtained from the Shanghai Medical School Animal Center and were used for the half-life assay. […] After injection, blood samples were acquired from rat orbit at several time points (8 and 30 min and 1.5, 3, 6, 9, 12 and 24 h after peptide injection) and placed in clean tubes. […] Then, HRP-labeled rabbit-anti-mouse IgG (Sigma, USA) and TMB were added in order. Absorbance at 450 nm was determined by an ELISA reader (Ultra 384, Tecan). The standard peptide parameters were obtained first. Then, the plasma peptide concentrations were determined as a function of time and the half-life was calculated by using PK Solver for Microsoft Excel to obtain pharmacokinetic parameters.

[5] = intravenous 1 mg/kg, male SD rats, n = 2; plasma by sandwich ELISA; PK Solver
Protocol: as §1

enfuvirtide
injection-site reactions [1]: often causing serious injection-site reactions
remaining at 2 h, 10 μg/mL [2]: 29%
half-life in plasma [3]: about 2 h
MRT [4]: 2.27 h
half-life [4]: 1.57 h
Cmax [5]: 314.80 µg/mL
